# Reference: US5827837A, “Polyanion anti-inflammatory agents” (priority 1996, dated 1998)
# Assays:
# [1] = Toxic effects after injection, applicant's studies; format: in vivo
# [2] = test system: neutrophils; details: cited from earlier work
# [3] = test system: P-selectin (P-COS); assay: LS 180 cell adhesion to COS cells transfected with full length P-selectin (P-COS); format: cell-based; details: 0.5 mM, 2 experiments
# Protocol: (§1) The effect of inositols on selectin-dependent cell adhesion was assessed using several in vitro assay systems. In the first, a colon cancer cell line, LS 180, was chosen because it binds to all three selecting.
# (§2) COS-1 cells were transfected as described (Seed, B., et al., Proc. Natl. Acad. Sci., U.S.A., 84:3365, 1987; Aruffo, A., Current Protocols In Molecular Biology, eds. supra, 1992) with pCDM7/pCDM8 expression vectors containing the full-length E-, P- and L-selectin cDNA. Transfected COS-1 cells were seeded on gelatin coated coverslips.
# [4] = test system: hemoglobin; details: in vitro; cited from earlier work
# [5] = test system: Human umbilical vein endothelial cells (HUVEC); assay: PMN adhesion to TNF-activated endothelial monolayers (HUVEC); format: cell-based; details: InsP6 0.5 mM
# Protocol: Human umbilical vein endothelial cells (HUVEC, Clonetics Corp., San Diego, Calif.) were grown to confluence with 2.2 cm diameter circles made on glass slides with a grease pencil as previously described (Spertini, O., et al., J. Immunol., 147:2565, 1991), and activated for 6-8 hours at […] with 200 U/ml of human recombinant TNFα (Biogen Res. Corp., Cambridge, Mass.). Human PMN (2×10^6) were allowed to adhere to these endothelial monolayers for 30 min at 4° C. under static (stationary platform; upper panel) and non-static (rotating platform, 64 r.p.m.; lower panel) conditions. To determine adhesion blocking activity, PMN were incubated in 5% FBS in RPMI 1640 alone or containing inositol (0.5 mM), InsP6 (0.5 mM), or anti-L-selectin monoclonal antibody LAM 1.3 (10 μg/ml), for 30 min or ice prior to their addition to activated endothelial monolayers. In some experimental wells, endothelial monolayers were incubated with anti E-selectin monoclonal antibody, H18/7, for 30 min prior to addition of PMN. After washing to remove unbound PMN, cultures were fixed in PBS containing 2.5% glutaraldehyde and adherent PMN were counted microscopically. The data represent the mean ±s.e.m. of three separate experiments. Unblocked PMN adhesion to activated endothelial monolayers under static and non-static conditions ranged from 1800 to 2400 cells/mm^2. […]
# [6] = test system: E-selectin (E-COS); assay: PMN adhesion to E-selectin transfected COS cells (E-COS); format: cell-based, human; details: 0.5 mM
# Protocol: as §2
# [7] = mice and rats, high-dose (^18 600 μmol/kg), rate 60 μmol/kg/min or higher; cited from earlier work
# [8] = test system: L-selectin (L-COS); assay: LS 180 cell adhesion to COS cells transfected with full length L-selectin (L-COS); format: cell-based; details: 0.5 mM, 2 experiments
# Protocol: as §1, §2
# [9] = test system: peripheral blood PMN; assay: Number of peripheral blood PMN; details: in vivo
# From the text: (§3) In the first model, mice were given intraperitoneal (i.p.) injections of 3% thioglycollate broth (FIG. 4, left panel) which results in an accumulation of PMN, the early phase of which is thought to depend in large part on L-(Lewinsohn, D. M., et al., J. Immunol., 138:4313, 1987; Watson, S. R., et al., Nature, 349:164, 1991), and P-selectin (Mulligan, M. S., et al., J. Clin. Invest., 90:1600, 1992). […] In a rat model of lung inflammation involving intratracheal instillation of endotoxin (Ulich, T. R., et al., Am. J. Pathol, 138:1485, 1991), InsP6 (i.v. injections at 2 and 4 hours, 40 μmol/kg total) reduced the number of PMN recovered in broncho-alveolar lavage fluid at 6 hours (59±8% inhibition, 2 experiments). The number of peripheral blood PMN was not modified by InsP6 treatment.
# [10] = molecular target: T1, E-selectin-lg fusion protein (Homo sapiens, UniProt P16581); assay: LS 180 colon cancer cell adhesion to immobilized E-selectin-Ig; format: cell-based
# T1 construct: Each selectin-lg contains the lectin domain, epidermal growth factor domain, and one (L-selectin-lg), two (P-selectin-lg) or six (E-selectin-lg) complement regulatory repeats; made in house
# Protocol: Cell adhesion assays on immobilized selectin-lg were performed essentially as described (Nelson, R. M., et al., J. Clin. Invest., 91:1157, 1993; Nelson, R. M., et al., Symposia on Quant. Biol., 57:271, 1992). Briefly, Nunclon Terasaki Microwell plates were coated overnight with 5 μl/well of a 5 μg/ml solution of protein A (Chemicon, Temecula, Calif.) in 50 mM carbonate buffer, pH 9.5. Protein-A-coated plates were washed with Dulbecco's phosphate buffered saline (PBS), incubated for 1 hour with L-, P-, or E-selectin-lg fusion proteins in PBS (5-20 μg/ml), washed again, and blocked with PBS containing 1% human serum albumin (HSA). […] After washing to remove unbound cells, adherent cells were fixed with glutaraldehyde (2.5% in PBS) and counted. Symbols and error bars represent mean number of adherent cells/mm^2 ±s.e.m., counted in quadruplicate wells in a single experiment representative of three. No LS 180 cell adhesion was detected on plates coated with protein A alone, or on plates coated with protein A-captured CD8-lg fusion protein.
# LS 180 cells (ATCC, Rockville, Md.) were added to cell culture wells containing protein A-captured selectin-lg fusion proteins and incubated for 30 min at 4° C. to allow adhesion. The plates were washed to remove unbound cells and adherent cells were counted microscopically. […]
# [11] = test system: PMN recovered in broncho-alveolar lavage fluid; assay: Lung inflammation by intratracheal instillation of endotoxin, PMN in broncho-alveolar lavage fluid; format: in vivo; details: rat, i.v. at 2 and 4 hours, 40 μmol/kg total, at 6 hours, 2 experiments
# From the text: as §3
# T1 sequence (P16581 with tags, fused parts or gaps limits assumed): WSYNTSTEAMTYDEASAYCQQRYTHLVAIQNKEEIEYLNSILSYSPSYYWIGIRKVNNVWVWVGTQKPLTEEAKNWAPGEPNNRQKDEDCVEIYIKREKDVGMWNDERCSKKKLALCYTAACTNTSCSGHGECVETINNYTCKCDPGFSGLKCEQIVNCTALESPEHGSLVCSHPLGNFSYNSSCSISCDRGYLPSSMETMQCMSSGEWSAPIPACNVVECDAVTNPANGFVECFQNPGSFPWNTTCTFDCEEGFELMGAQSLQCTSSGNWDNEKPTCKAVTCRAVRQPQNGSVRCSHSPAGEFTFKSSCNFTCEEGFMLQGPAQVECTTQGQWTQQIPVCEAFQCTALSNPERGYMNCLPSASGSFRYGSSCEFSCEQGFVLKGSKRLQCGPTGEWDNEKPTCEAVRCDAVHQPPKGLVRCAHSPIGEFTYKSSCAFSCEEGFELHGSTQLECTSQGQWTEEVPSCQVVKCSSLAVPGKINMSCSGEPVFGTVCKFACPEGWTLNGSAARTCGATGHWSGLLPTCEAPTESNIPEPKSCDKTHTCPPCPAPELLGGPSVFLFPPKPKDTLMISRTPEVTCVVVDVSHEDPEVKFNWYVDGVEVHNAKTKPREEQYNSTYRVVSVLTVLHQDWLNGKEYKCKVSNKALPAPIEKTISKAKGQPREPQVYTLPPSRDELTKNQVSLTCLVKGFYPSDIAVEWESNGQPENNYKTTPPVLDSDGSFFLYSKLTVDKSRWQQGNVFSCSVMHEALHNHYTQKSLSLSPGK
compound,measurement,setting,value
"O=P(O)(O)O[C@H]1[C@H](OP(=O)(O)O)[C@@H](OP(=O)(O)O)[C@H](OP(=O)(O)O)[C@@H](OP(=O)(O)O)[C@H]1OP(=O)(O)O [InsP6, myo-inositol hexakisphosphate]",toxic effects at decreased infusion rate and lower doses,"[1]; 40 μmol/kg, decreased rate of infusion",These effects were avoided
same,duration of transient toxic effects,"[1]; rapid i.v. (5-10 sec), >50 μmol/kg",1 to 3 min
same,toxic effects upon rapid i.v. injection,"[1]; rapid i.v. (5-10 sec), concentrated solutions >50 μmol/kg","some transient (duration 1-3 min) toxic effects (unsteady gate, spasms)"
same,harmful effect on repeated protocol,"[1]; repeated multiple times in the same animal, 40 μmol/kg",without apparent harmful effect
same,"toxic effects, subcutaneous","[1]; s.c., doses up to 200 μmol/kg",no toxic effects were observed
same,effect on neutrophil responses to activating stimuli,[2],enhance their responses to activating stimuli
same,inhibition of LS 180 cell adhesion to P-COS,[3],95±5%
same,allosteric regulation of mammalian hemoglobin,[4],effective allosteric regulator of mammalian hemoglobin in vitro
same,"PMN adhesion to TNF-activated endothelial cells, non-static","[5]; non-static conditions (rotation-induced shear stress, 64 r.p.m.)",blocked the adhesion of PMN
same,"PMN adhesion to TNF-activated endothelial cells, static",[5]; static conditions,little or no effect
same,PMN adhesion to E-COS,[6],not to E-COS
same,"acute toxic effects, i.v. infusion",[7],acute toxic effects
same,inhibition of LS 180 cell adhesion to L-COS,[8],81±13%
same,number of peripheral blood PMN,[9],not modified
same,LS 180 adhesion to E-selectin-Ig,[10],but not with E-selectin-lg
same,inhibition of PMN recovered in broncho-alveolar lavage fluid,[11],59±8%
